Results as given in patent US7723063B2, “Methods for measuring levels of bioactive human hepcidin” (Intrinsic Lifesciences, priority 2004, dated 2010).
Values after ≈ are worked out from the molar mass of the structure shown. Ends that are not written are not given here. Peptide text beside a SMILES is read from it.

Tests used:
[1] = Aggregation of bioactive hepcidin in phosphate buffered saline; type: physicochemical; conditions: pH 7.4
Description: Development of bass hepcidin enzyme/ligand conjugates for ELISA. We took advantage of the only available (N-terminal) primary amine group present in refolded bass hepcidin for conjugation to KLH using EDC (1-Ethyl-3-[3-Dimethylamino-propyl] carbodiimide HCl) and DSS (Disuccinimidyl suberate) chemistries. These approaches were very difficult to develop and apply to production of hepcidin conjugates due to hepcidin's inherent solubility issues in higher pH coupling buffers. […] We have encountered significant issues when trying to solubilize hepcidin at the higher concentrations (1-3 mg ml^−1) in standard coupling buffers desirable for production of high activity, soluble hepcidin-HRP conjugates for ELISA.

[2] = Serum hepcidin after IP injection of synthetic bass hepcidin, competitive ELISA; type: in vivo; conditions: HSB
Method: Competition ELISA Protocol. A high-binding 96-well microplate (Corning, Inc., Cat. No. 3590) was coated with 100 μl of a 1:5,000 dilution of affinity-purified rabbit anti-HSB hepcidin antibody (0.68 mg/ml) in carbonate-bicarbonate coating buffer pH 9.6 (Sigma-Aldrich Corp., Cat. No. C-3041). One well contained 100 μl carbonate-bicarbonate coating buffer and no antibody. The plate was covered and placed at 4°C. Following a suitable period of incubation at 4° C., the plate was washed with three, 300 μl volumes of PBS-T (PBS containing 0.05% TWEEN-20™). Next, the plate was blocked with 250 μl of a 2% (w/v) dry milk solution in PBS, covered, and incubated for one hour at RT, shaking at 150 rpm. Samples and standard curves were prepared in a separate 96-well plate. Serum, plasma, and urine samples were diluted with PBS diluted to be within the working range of the standard curve. An aliquot of biotinylated AEEAc-derivatized hepcidin (0.21 mg/ml diluted 1:2000) was added to each well to give a final biotinylated hepcidin concentration of 94.5 ng/ml. From each well of the sample/standard curve dilution plate, 100 μl was transferred to the antibody coated and blocked plate. The plate was covered and incubated at RT, shaking at 150 rpm, for 1 hour to allow competitive binding to occur. […] Absorbance at 450 nm was determined using a THERMOMAX™ microplate reader with SOFTMAX PRO™ software (Molecular Devices). Data were analyzed using a spreadsheet program. […]
The data from these studies is separated by double lines. […] The second data set is from a field study Production Tank 32, where HSB without apparent clinical disease ‘Clinically Healthy’ and “Infected/Moribund” HSB were sampled and their serum hepcidin levels determined (Rows 4-5). […] The fourth experiment is a clinical where the indicated quantities of synthetic, bioactive, bass hepcidin was injected IP and measured in their serum at the indicated timepoints (Rows 8-11). […]

Yersinia enterocolitica = test: Microbicidal kinetics; type: cell-based
Method: Microbicidal Kinetics. An experiment was conducted to examine the microbicidal kinetics of bass hepcidin and to compare its killing activity to another bass antimicrobial peptide, moronecidin. Moronecidin is a 22 amino acid, linear, amphipathic α-helical peptide which was originally co-purified from the gill of HSB with hepcidin. […] We compared the killing kinetics of hepcidin and moronecidin against Y enterocolitica at 30 min intervals over a 3 h time period using 2× their MIC concentrations for this organism (44 and 10 μM; FIG. 12). The bactericidal activities of the peptides were assessed by plating cultures and counting CFUs after overnight incubation at 37° C.

spores of A. niger = test: Germination and fungicidal assay; type: cell-based; conditions: 48 hr exposure, re-culture in fresh medium
Method: Germination and Fungicidal Assay. Spores of A. niger were harvested and resuspended in sterile water containing 0.05% TWEEN-80™, and the concentration adjusted to approximately 10^8 spores per ml. Spores were diluted in half-strength PDB containing 16 μM chloramphenicol to a final concentration of 10^5 spores per ml. Ninety μl of the suspension was placed in sterile flat-bottomed polystyrene 96-well plates with 10 μl of serial dilutions of peptide (440 μM, 220 μM, 110 μM, 55 μM), in water. Germination of spores was allowed to proceed for 2 days at 30° C. in the dark, after which hyphae density was measured by absorbance at 600 nm. After 2 days of incubation, the contents of wells showing no germination were centrifuged for 3 min at 5000 rpm, resuspended in 50 μl of fresh PDB media, and triplicate aliquots spotted onto PDB agar plates. Plates were placed at 30° C. for 3 days to monitor germination of hyphae. The absence of germination indicated fungicidal activity.
Fungicidal Activity. […] After 48 hr exposure to the respective peptides, spores were removed and cultured in fresh medium and examined 48 h later for growth.

S. iniae = tested on: S. iniae
Method: (§1) Antimicrobial Synergism Studies. Synergism between synthetic bass hepcidin and moronecidin was tested in checkerboard liquid growth inhibition assays. In brief, two-fold serial dilutions of each peptide were made in water, and 10 μl of the solution added to the bottom of the wells of a 96-well plate. Ninety μl of exponential phase bacterial cultures (OD600˜0.2) were freshly diluted in culture media to ˜2×10^5 CFU ml^−1 and added to peptide solutions. Controls consisted of wells with the appropriate volume and concentration of each peptide alone, or of water. Bacterial viability was assayed at 2 h by plating aliquots of the bacterial suspension for CFU enumeration. The bacterial suspensions were further incubated overnight at 37° C. and bacterial growth was monitored by optical density at 600 nm for determination of MIC. Synergistic activity was quantify as fractional inhibition concentration (FIC) index=([A]/MICA)+([B]/MICB), where MICA and MICB are the MICs of the peptides alone and [A] and [B] are the MICs of A and B when used together.
(§2) To test for synergism between the two antimicrobial peptides in vitro, we conducted liquid growth inhibition/killing experiments with a Gram-positive (S. iniae) and a Gram-negative bacterium (Y enterocolitica) using varying concentrations of the two synthetic peptides. The bacteria were cultured in the presence of synthetic bass hepcidin and moronecidin and plated after 2 h incubation at 37° C. for determination of CFU (FIG. 14).

HSB erythrocytes = test: Hemolytic activity; type: cell-based, striped bass
Method: Hemolytic activity. Freshly packed striped bass erythrocytes (3 ml) isolated from young fingerlings (˜30 g) and adult fish (˜300 g) were washed with phosphate-buffered saline (PBS; pH 7.4) until the supernatant was colorless and resuspended in PBS (30 ml) supplemented with glucose (0.2%, w/v). Synthetic bass hepcidin (10 μl of 880-55 μM) was added to 90 μl of a 1% suspension of washed erythrocytes in microcentrifuge tubes. Triplicate samples were incubated for 30, 90, 180, and 240 min at 37° C. then centrifuged for 10 min at 3500 rpm. Supernatant from the erythrocyte suspension (70 μl) was placed in a microtiter plate and optical density at 405 nm determined. The percentage of hemolysis in hepcidin-treated erythrocytes was expressed relative to hemolysis obtained with a control erythrocyte suspension treated with 0.1% sodium dodecyl sulphate (SDS, 100% hemolysis).
Hemolytic Activity. The hemolytic activity of bass hepcidin was tested with erythrocytes from HSB. […] Greater than 98% of the bass erythrocytes exposed to 44 μM hepcidin for 3 h at 37° C. remained intact. This exposure corresponds to a time point when 96% of Y. enterocolitica exposed to 44 μM hepcidin have been killed (see FIG. 6, Panel A). After 4 h incubation with 44 μM hepcidin, more than 97% of the erythrocytes remained intact. No hemolysis was observed after 4 h at hepcidin concentrations of 11 μM and lower.

[3] = Direct binding to ferric iron by NMR
Description: Instead, hepcidin has shown to have the capability of exerting its effects on the innate immune response of teleosts through a combination of activities. The bass model employed in these studies provides a powerful approach to further elucidate hepcidin function(s), including it potential role in hypoferremia in teleosts.

Y. enterocolitica = tested on: Y. enterocolitica
Method: as §1, §2

CSCC[C@@H]1NC(=O)[C@H](CC(N)=O)NC(=O)[C@@H]2CCCN2C(=O)[C@@H]2CSSC[C@@H]3NC(=O)[C@H](C(C)C)NC(=O)CNC(=O)[C@H](CSSC[C@@H]4NC(=O)[C@H](CSSC[C@H](NC(=O)[C@H](CC(N)=O)NC4=O)C(=O)N2)NC(=O)[C@H](Cc2ccccc2)NC(=O)[C@H](CCCNC(=N)N)NC(=O)[C@@H](NC(=O)CN)CSSC[C@@H](C(=O)N[C@@H](CCCNC(=N)N)C(=O)N[C@@H](Cc2ccccc2)C(=O)O)NC3=O)NC(=O)CNC(=O)[C@H](CO)NC1=O [bass hepcidin] (HELM PEPTIDE1{G.C.R.F.C.C.N.C.C.P.N.M.S.G.C.G.V.C.C.R.F}$PEPTIDE1,PEPTIDE1,2:R3-19:R3|PEPTIDE1,PEPTIDE1,5:R3-8:R3|PEPTIDE1,PEPTIDE1,6:R3-15:R3|PEPTIDE1,PEPTIDE1,9:R3-18:R3$$$V2.0; N-terminus and C-terminus assumed)
Concentration at which it readily aggregates [1]: 0.05 µg/mL | level at 3 h ([2]; 50 ug, 50 μg IP): 39.3 µg/mL | level at 3 h ([2]; 300 ug, 300 μg IP): 204 µg/mL | level at 6 h ([2]; 2 × 300 μg IP (0 and 3 h), sampled 6 h): 230 µg/mL | Time required for 90% reduction of CFU from the original inoculum (Yersinia enterocolitica; 44 μM): Two and half hours | State of cultures at 30 min (Yersinia enterocolitica; 22 and 44 μM): actually growing | MIC (Yersinia enterocolitica; Y. enterocolitica): 22 µM (≈ 49.6 µg/mL) | Fungicidal concentration (spores of A. niger): 44 µM | Antimicrobial activity against S. iniae (S. iniae; 2 h incubation, concentrations as high as 88 μM): no detectable antimicrobial activity | Hemolytic activity (HSB erythrocytes; 5.5 μM, 30 min., 37° C.): 0% of controls | Hemolytic activity (HSB erythrocytes; 5.5 μM, 90 min.): 0% of controls | Hemolytic activity (HSB erythrocytes; 5.5 μM, 180 min.): 0% of controls | Hemolytic activity (HSB erythrocytes; 11 μM, 30 min.): 0% of controls | Hemolytic activity (HSB erythrocytes; 11 μM, 90 min.): 0% of controls | Hemolytic activity (HSB erythrocytes; 11 μM, 180 min.): 0% of controls | Hemolytic activity (HSB erythrocytes; 22 μM, 30 min.): 0% of controls | Hemolytic activity (HSB erythrocytes; 22 μM, 90 min.): 0% of controls | Hemolytic activity (HSB erythrocytes; 22 μM, 180 min.): 0.4 ± 0.15% of controls | Hemolytic activity (HSB erythrocytes; 22 μM, 240 min.): 0.4 ± 0.4% of controls | Hemolytic activity (HSB erythrocytes; 44 μM, 30 min.): 0% of controls | Hemolytic activity (HSB erythrocytes; 44 μM, 90 min.): 0% of controls | Erythrocytes remaining intact (HSB erythrocytes; 44 μM, 3 h, 37° C.): Greater than 98% | Hemolytic activity (HSB erythrocytes; 44 μM, 180 min.): 1.4 ± 0.3% of controls | Erythrocytes remaining intact (HSB erythrocytes; 44 μM, 4 h): more than 97% | Hemolytic activity (HSB erythrocytes; 44 μM, 240 min.): 2.5 ± 1.2% of controls | Hemolysis (HSB erythrocytes; 4 h, 11 μM and lower): No hemolysis | Direct binding to ferric iron [3]: no evidence

FFHHIFRGIVHVGKTIHKLVTG-NH2 (C-terminus assumed) [moronecidin, reference compound]
Decrease in CFU (Yersinia enterocolitica; 10 μM (2× MIC), after 30 min): 90% | Fungicidal concentration (spores of A. niger): 10 µM | MIC (S. iniae): 2.5 µM | MIC (Y. enterocolitica): 5 µM | MIC (E. coli): 5 µM
